Test results: patent US20070148090A1, “Per (3,6-anhydro) cyclodextrin derivatives, preparation thereof and use thereof for transporting metal elements to biological targets or for decontaminating biological targets of fluids” (priority 2003, published 2007)
“Also recorded” adds a separate entry of the source.

How the values were obtained:
[1] = complexation of erbium on ion-loaded thin layer chromatography plates (1/Rf); format: binding; conditions: Polygram Ionex 25-SA-Na plates loaded with Er^3+, developed four times in water; FIG. 4
Source text: (§1) To evaluate the complexation, ion-loaded thin layer chromatography plates which allow rapid evaluation of the complexation of these ions by the species to be evaluated are used. In the present case, plates of Polygram Ionex 25-SA-Na type (Macherey-Nagel, ref: 80613) loaded with various counterions were used. In each test, the compound to be tested is introduced onto the plate, and if the compound complexes the ions, they will be retained on the plate. The plates are then developed four times in water, because of the small amount of migration of the cyclodextrin derivatives, and then the degree of complexation is determined through the value 1/Rf, where Rf represents the ratio: (distance covered by the cyclodextrin derivative/distance covered by the solvent).
(§2) Measurements of degree of complexation of lead (in the form Pb^2+) and of erbium in the form (Er^3+) were carried out for the following three compounds: • the base cyclodextrin mono-2-O-carboxyméthyle-per-(3,6-anhydro)cyclomaltohexaose (designated (1) in FIG. 4); • a cyclodextrin in accordance with the invention, prepared in the context of Example 1 (denoted (2) in FIG. 4); • a cyclodextrin in accordance with the invention, prepared in the context of Example 2 (denoted (3) in FIG. 4).

[2] = complexation of lead on ion-loaded thin layer chromatography plates (1/Rf); format: binding; conditions: Polygram Ionex 25-SA-Na plates loaded with Pb^2+, developed four times in water; FIG. 4
Source text: as §1, §2

Substance | erbium-complexation properties (degree of complexation, 1/Rf) [1] | lead-complexation properties (degree of complexation, 1/Rf) [2]
[(mono-2-O-methyl(mono-ε-amidopoly-L-Lysine)]-per-(3,6-anhydro)-α-cyclodextrin [Example 2] | particularly advantageous; also recorded: complex erbium | particularly advantageous
mono-2-O-carboxymethyl-per-(3,6-anhydro)cyclomaltohexaose [noncoupled per(3,6-anhydro)cyclodextrin, reference compound] | does not complex erbium | –
